Measurements: patent US20250276982A1, “KRAS INHIBITORS” (ASCENTAGE PHARMA (SUZHOU) CO., LTD., priority 2021, published 2025)

Key:
Assay type in all cases: cell-based
[1] = tested on: GP2d cells; assay: Cellular proliferation assay in GP2d cells (CellTiterGlo luminescent cell viability assay); settings: 72 hours treatment, CellTiter-Glo
Method: Example 32: Cellular Proliferation Assay in GP2d Cells
The inhibitory effect of test compounds on cellular proliferation was determined using CellTiterGlo® luminescent cell viability assay (Promega) following manufacturer's instruction.
GP2d cells (ECACC #95090715) were cultured in DMEM medium supplemented with 10% fetal bovine serum, 10 U/ml penicillin and 10 ug/ml streptomycin. Cells were plated in 96-well plates at a density of 2000 cells/well and allowed attach for […]. Then the cells were treated with various concentrations of test compounds for 72 hours. CellTiter-Glo® Reagent was added to wells and incubated for 10 minutes at room temperature. The plates were read on GloMax® 96 Microplate Luminometer or compatible microplate readers. The percentage of cellular viability was calculated as: […]

[2] = tested on: phosphorylation of ERK1/2 in AGS cells with KRAS-G12D mutation; assay: Detection of phosphorylation of ERK1/2 in AGS cells (AlphaLISA SureFire Ultra p-ERK 1/2 (Thr202/Tyr204) assay); settings: Homo sapiens, 3 hours, AlphaLISA p-ERK 1/2 (Thr202/Tyr204)
Method: Example 33: Detection of Phosphorylation of ERK1/2 in AGS Cells
The inhibitory effect of test compounds on phosphorylation of ERK1/2 were determined using the AlphaLISA® SureFire® Ultra™ p-ERK 1/2 (Thr202/Tyr204) assay following the manufacturer's instructions (ALSU-PERK-A500, PerkinElmer Inc.).
AGS cells (ATCC CRL-1739) with KRAS-G12D mutation were cultured in DMEM medium supplemented with 10% fetal bovine serum, 10 U/ml penicillin and 10 μg/ml streptomycin. Cells were plated in 96-well plates at a density of 4000 cells/well. After 16-18 hours incubation, various concentrations of compounds were added to cells with a final concentration of 0.2% DMSO. After 3 hours, the medium was removed, and the cells were lysed in 50 uL lysis buffer. 10 uL of lysate was transferred to a half area 96-well plate, 5 ul of acceptor mix was added to wells and incubated at room temperature for 1 hour, then 5 ul of donor mix was added to wells. After 1 hour incubation at room temperature, the plate was read on an Alpha Technology-compatible plate reader, using standard AlphaLISA settings. The assays were carried out in duplicates.

[3] = tested on: p-ERK in AGS cells; assay: p-ERK assay in AGS cells (fixed cells, anti-p-ERK / β-Actin antibodies, IR imaging); settings: Homo sapiens, 3 h at 37° C., p-ERK detected by antibody with β-Actin, IR fluorescence
Method: The expression of p-ERK was detected in this assay. At first, the AGS cells (40000 cells/well) were seeded in 96-well plate culture overnight and treated with KRAS-G12D compounds inhibitors at concentrations of 1, 0.33, 0.11, 0.03, 0.01, 0.004, 0.001, 0.0004, 0.0001 μM for 3 h at 37° C. Then, add an equal volume (100 μL) of 8% paraformaldehyde solution to fix and crosslink the cells to the microplate for 15 minutes. Add 100 μL of 1× permeabilization solution to wells for 30 min and add 100 μL of 1× blocking solution for 2 h. Wash with PBS 3 times after each reaction. At last, Incubation with primary antibody (Anti-mouse β-Actin and Anti-rabbit p-ERK) and secondary antibody (Goat anti-Mouse IgG H&L IRDye 800CW and Goat anti-Rabbit IgG H&L IRDye 680RW) for 2 h, As appropriate, image the microplate with an IR scanner or develop the HRP labeled microplate and read it with a spectrophotometer. The fluorescence signal was monitored using a microplate reader (Azure biosystems, Sapphire biomolecular imager) using excitation and emission wavelengths of 680 and 800 nm, respectively. Export data. The inhibitor dose-reponse curves were analyzed using normalized IC50 regression curve fitting with control based normalization.

Oc1cc(-c2ncc3c(N4C[C@H]5CC[C@@H](C4)N5)nc(OC[C@@]45CCCN4C[C@H](F)C5)nc3c2F)c2c(ccc3ccoc32)c1 [Example 1, 9-(4-((1R,5S)-3,8-diazabicyclo[3.2.1]octan-3-yl)-8-fluoro-2-(((2R,7aS)-2-fluorotetrahydro-1H-pyrrolizin-7a(5H)-yl)methoxy)pyrido[4,3-d]pyrimidin-7-yl)naphtho[1,2-b]furan-7-ol]
IC50 [1]: 680 nM | IC50 [2]: 408 nM | IC50 [3]: 107 nM

Oc1cc(-c2ncc3c(N4C[C@H]5CC[C@@H](C4)N5)nc(OC[C@@]45CCCN4C[C@H](F)C5)nc3c2F)c2c3c(ccc2c1)CCC3 [Example 2, 9-(4-((1R,5S)-3,8-diazabicyclo[3.2.1]octan-3-yl)-8-fluoro-2-(((2R,7aS)-2-fluorotetrahydro-1H-pyrrolizin-7a(5H)-yl)methoxy)pyrido[4,3-d]pyrimidin-7-yl)-2,3-dihydro-1H-cyclopenta[a]naphthalen-7-ol]
IC50 [1]: 130 nM | IC50 [2]: 78 nM | IC50 [3]: 11 nM

O=C1CCc2ccc3cc(O)cc(-c4ncc5c(N6C[C@H]7CC[C@@H](C6)N7)nc(OC[C@@]67CCCN6C[C@H](F)C7)nc5c4F)c3c21 [Example 17, 9-(4-((1R,5S)-3,8-diazabicyclo[3.2.1]octan-3-yl)-8-fluoro-2-(((2R,7aS)-2-fluorotetrahydro-1H-pyrrolizin-7a(5H)-yl)methoxy)pyrido[4,3-d]pyrimidin-7-yl)-7-hydroxy-2,3-dihydro-1H-cyclopenta[a]naphthalen-1-one]
IC50 [1]: 16000 nM | IC50 [3]: 272 nM

OCC1Cc2ccc3cc(O)cc(-c4ncc5c(N6C[C@H]7CC[C@@H](C6)N7)nc(OC[C@@]67CCCN6C[C@H](F)C7)nc5c4F)c3c2C1 (stereo partly drawn) [Example 18, 9-(4-((1R,5S)-3,8-diazabicyclo[3.2.1]octan-3-yl)-8-fluoro-2-(((2R,7aS)-2-fluorotetrahydro-1H-pyrrolizin-7a(5H)-yl)methoxy)pyrido[4,3-d]pyrimidin-7-yl)-2-(hydroxymethyl)-2,3-dihydro-1H-cyclopenta[a]naphthalen-7-ol]
IC50 [1]: 17000 nM | IC50 [3]: 240 nM

Oc1cc(-c2ncc3c(N4C[C@H]5CC[C@@H](C4)N5)nc(OC[C@@]45CCCN4C[C@H](F)C5)nc3c2F)c2c(c1)c(Cl)c1n2CCC1 [Example 20, 5-(4-((1R,5S)-3,8-diazabicyclo[3.2.1]octan-3-yl)-8-fluoro-2-(((2R,7aS)-2-fluorotetrahydro-1H-pyrrolizin-7a(5H)-yl)methoxy)pyrido[4,3-d]pyrimidin-7-yl)-9-chloro-2,3-dihydro-1H-pyrrolo[1,2-a]indol-7-ol]
IC50 [1]: 2410 nM | IC50 [3]: 226 nM

Oc1cc(-c2ncc3c(N4C[C@H]5CC[C@@H](C4)N5)nc(OC[C@@]45CCCN4C[C@H](F)C5)nc3c2F)c2c3c(ccc2c1)COC3 [Example 21, 9-(4-((1R,5S)-3,8-diazabicyclo[3.2.1]octan-3-yl)-8-fluoro-2-(((2R,7aS)-2-fluorotetrahydro-1H-pyrrolizin-7a(5H)-yl)methoxy)pyrido[4,3-d]pyrimidin-7-yl)-1,3-dihydronaphtho[1,2-c]furan-7-ol]
IC50 [1]: 263 nM | IC50 [3]: 52 nM

Oc1cc(-c2ncc3c(N4C[C@H]5CC[C@@H](C4)N5)nc(OCC4(CN5C6CCC5COC6)CC4)nc3c2F)c2c3c(ccc2c1)CCC3 [Example 23, 9-(2-((1-((3-oxa-8-azabicyclo[3.2.1]octan-8-yl)methyl)cyclopropyl)methoxy)-4-((1R,5S)-3,8-diazabicyclo[3.2.1]octan-3-yl)-8-fluoropyrido[4,3-d]pyrimidin-7-yl)-2,3-dihydro-1H-cyclopenta[a]naphthalen-7-ol]
IC50 [1]: 908 nM | IC50 [3]: 33 nM

Oc1cc(-c2ccc3c(N4C[C@H]5CC[C@@H](C4)N5)nc(OCC4(CN5CC6COCC6C5)CC4)nc3c2F)c2c3c(ccc2c1)CCC3 (stereo partly drawn) [Example 24, 9-(4-((1R,5S)-3,8-diazabicyclo[3.2.1]octan-3-yl)-8-fluoro-2-((1-((tetrahydro-1H-furo[3,4-c]pyrrol-5 (3H)-yl)methyl)cyclopropyl)methoxy)quinazolin-7-yl)-2,3-dihydro-1H-cyclopenta[a]naphthalen-7-ol]
IC50 [1]: 120 nM | IC50 [3]: 24 nM

C[C@@H]1COCCN1CC1(COc2nc(N3C[C@H]4CC[C@@H](C3)N4)c3ccc(-c4cc(O)cc5ccc6c(c45)CCC6)c(F)c3n2)CC1 [Example 25, 9-(4-((1R,5S)-3,8-diazabicyclo[3.2.1]octan-3-yl)-8-fluoro-2-((1-(((R)-3-methylmorpholino)methyl)cyclopropyl)methoxy)quinazolin-7-yl)-2,3-dihydro-1H-cyclopenta[a]naphthalen-7-ol]
IC50 [1]: 303 nM | IC50 [3]: 18 nM

Oc1cc(-c2ccc3c(N4C[C@H]5CC[C@@H](C4)N5)nc(OCC4(CN5CCOCC5)CC4)nc3c2F)c2c3c(ccc2c1)CCC3 [Example 26, 9-(4-((1R,5S)-3,8-diazabicyclo[3.2.1]octan-3-yl)-8-fluoro-2-((1-(morpholinomethyl)cyclopropyl)methoxy)quinazolin-7-yl)-2,3-dihydro-1H-cyclopenta[a]naphthalen-7-ol]
IC50 [1]: 195 nM | IC50 [3]: 39 nM

Oc1cc(-c2ccc3c(N4C[C@H]5CC[C@@H](C4)N5)nc(OCC4(CN5C6CCC5COC6)CC4)nc3c2F)c2c3c(ccc2c1)CCC3 [Example 27, 9-(2-((1-((3-oxa-8-azabicyclo[3.2.1]octan-8-yl)methyl)cyclopropyl)methoxy)-4-((1R,5S)-3,8-diazabicyclo[3.2.1]octan-3-yl)-8-fluoroquinazolin-7-yl)-2,3-dihydro-1H-cyclopenta[a]naphthalen-7-ol]
IC50 [1]: 370 nM | IC50 [3]: 131 nM

Oc1cc(-c2c(F)cc3c(N4C[C@H]5CC[C@@H](C4)N5)nc(OCC4(CN5C6CCC5COC6)CC4)nc3c2F)c2c3c(ccc2c1)CCC3 [Example 28, 9-(2-((1-((3-oxa-8-azabicyclo[3.2.1]octan-8-yl)methyl)cyclopropyl)methoxy)-4-((1R,5S)-3,8-diazabicyclo[3.2.1]octan-3-yl)-6,8-difluoroquinazolin-7-yl)-2,3-dihydro-1H-cyclopenta[a]naphthalen-7-ol]
IC50 [1]: 253 nM | IC50 [3]: 87 nM

Oc1cc(-c2c(F)cc3c(N4C[C@H]5CC[C@@H](C4)N5)nc(OCC4(CN5CCOCC5)CC4)nc3c2F)c2c3c(ccc2c1)CCC3 [Example 29, 9-(4-((1R,5S)-3,8-diazabicyclo[3.2.1]octan-3-yl)-6,8-difluoro-2-((1-(morpholinomethyl)cyclopropyl)methoxy)quinazolin-7-yl)-2,3-dihydro-1H-cyclopenta[a]naphthalen-7-ol]
IC50 [1]: 273 nM | IC50 [3]: 44 nM
